From patent US8765755B2, “N-containing heterocyclic compounds” (YM Biosciences Australia Pty Ltd, priority 2007, dated 2014) come the findings set out here.

For one assay, the system named is BafT_J2. Kind of assay: Cellular screening, BaF3 TEL:JAK2 cells (Alamar Blue). The format is cell-based. The following applies: Mus musculus, 40 hr incubation. As for the experimental part: (§1) For screening purposes, compounds were diluted in 96 well plates at a concentration of 20 μM. Plates were warmed at 37° C. for 30 minutes before the assay was performed.
(§2) The coding region encompassing nucleotides 1-487 of TEL was amplified by PCR using the oligonucleotides 5TEL (5′-GGAGGATCCTGATCTCTCTCGCTGTGAGAC-3′) [SEQ ID NO 14] and 3TEL (5′-AGGC GTCGACTTCTTCTTCATGGTTCTG-3′) [SEQ ID NO 15] and U937 mRNA as a template. A BamHI restriction site was incorporated into the 5TEL primer, and a Sal I restriction site was incorporated into the 3TEL primer. The regions encompassing the kinase domain of JAK2 (nucleotides 2994-3914; JAK2F 5′-ACGC GTCGACGGTGCCTTTGAAGACCGGGAT-3′ [SEQ ID NO 16]; JAK2R 5′-ATAGTTTAGCGGCCGCTCAGAATGAAGGTCATTT-3′) [SEQ ID NO 17] and JAK3 (nucleotides 2520-3469; JAK3F 5′-GAAGTCGACTATGCCTGCCAAGACCCCACGATCTT-3′) [SEQ ID NO 18] were generated by PCR using Taq DNA polymerase (Gibco/BRL) and U937 mRNA as a template. A Sal I restriction site was incorporated into the forward primer of JAK2 and JAK3, a Not I site was incorporated into the JAK2 reverse primer and a Xba I site was added to the reverse primer of JAK3.
A TEL/Jak2 fusion was generated by digestion of the TELPCR product with BamH I/Sal I restriction enzymes, digestion of the JAK2 PCR product with Sal I/Not I restriction enzymes, followed by ligation and subcloning of the ligation product into the mammalian expression Vector pTRE 2 (Clontech), which was prepared by digestion with BamH I-Not I restriction enzymes, to give the TEL/Jak2 fusion plasmid pTELJAK2.
(§3) The growth factor dependant myelomonocytic cell line BaF3 bearing the pTET-off plasmid (Clontech) was transfected with either pTELJAK2 or pTELJAK3, and the transfected cells were selected for growth-factor independent cell growth. The BaF3 wild-type cells were cultured in DMEM containing 10% FCS, 10% WEHI 3B conditioned medium. The BaF3 TELJAK cells ([…]) were cultured in DMEM 10% Tet-System Approved FBS (without WEHI 3B conditioned medium).
(§4) Cell suspensions were prepared by harvesting cells from culture. (the cells used in this test were in late log phase growth with high viability.) Cells were diluted in the appropriate growth medium, as described above, to 1.1× final concentration (from 50,000 cell/mL to 200,000 cell/mL, depending on cell line).
(§5) Compounds to be tested were added (10 μL, 10× final concentration) to a flat bottomed 96-well plate. The cellular suspension (90 μL per well) was then added, and the plate incubated for 40 hr at 37° C., 5% CO2. Alamar Blue 10 μL per well was added and the plates returned to the incubator for a further 4-6 hours. The plates were then read at 544 nm.
A general note: Resazurin is reduced to fluorescent resorufin, in cell work by metabolically active cells.

The next assay deals with CTLL2. Put plainly: Cellular screening, CTLL2 cells (Alamar Blue). The assay is classed as cell-based. Conditions: Mus musculus, CTLL-2, 40 hr incubation. As for the experimental part: as §1, §4, §5
For a further assay, the target named is T1, human JAK3 (Homo sapiens, UniProt P52333).
T1 construct: The kinase domain of human JAK3 was amplified; GST (N); made in house; host or cells: Sf9 (Spodoptera frugiperda) insect cells, baculovirus
Kind of assay: JAK3 kinase enzyme assay (Alphascreen). The assay is classed as biochemical. The following applies: 80 or 625 um ATP. The protocol:
(§6) For screening purposes, compounds (in 100% DMSO) were warmed at 37 degrees for at least 20 minutes before use. A […] stock was initially made in assay buffer, where the final concentration of DMSO was 0.3%. The stocks were then diluted in 384 well Optiplates (Packard) where the final concentration of the compound was 5 μM.
The kinase domain of human JAK3 was amplified from U937mRNA using the polymerase chain reaction with the following primers: […]
The JAK3 PCR products were cloned into the pDest20 destination expression vector (Gibco). The JAK3 plasmid was then transformed into competent DH10Bac cells (Gibco), and the recombinant baculovirus was prepared via Sf9 insect cell transfection.
(§7) Baculovirus preparations from each of the JAK family members were infected into one litre of Sf9 (Spodoptera frugiperda) cells (Invitrogen) grown in SF900II serum free medium (Invitrogen) to a cell density of approximately 2×10^6 cells/ml. Cells were infected with virus at a cell culture to virus stock ratio of 20:1. Cells were harvested and lysed 48 hours post infection. The GST-tagged JAK kinase domains were purified by affinity chromatography on a GSH agarose column (Scientifix).
(§8) Kinase assays were performed in 384 well Optiplates (Packard) using an Alphascreen Protein Tyrosine KinaseP100 detection kit The compounds were pre-incubated with affinity purified PTK domain in the presence of phosphotyrosine assay buffer (10 mM HEPES, pH 7.5, 100 mM MgCl2, 25 mM NaCl, 200 mM sodium vanadate and 0.1% Tween 20) for 20 minutes. The compounds were then incubated with substrate in the presence of either 80 or 625 um ATP for 60 or 90 minutes. The substrate used was either susbtrate-1 with the sequence biotin-EGPWLEEEEEAYGWMDF-NH2 [SEQ. ID. NO. 13] (final concentration 111 μM) or susbtrate-2 substrate with the sequence biotin-EQEDEPEGDYFEWLEPE (final concentration 133 μM). Alphascreen phosphotyrosine acceptor beads followed by streptavidin donor beads at a concentration of 1/100 in stop buffer were added to each well under subdued light and incubated for 2-3 hours. The Alphascreen plates were read on a Packard Fusion Alpha instrument.

In a further assay the target is T2, human JAK2 (Homo sapiens, UniProt O60674).
T2 construct: The kinase domain of human JAK2 was amplified; GST (N); made in house; host or cells: Sf9 (Spodoptera frugiperda) insect cells, baculovirus
Kind of assay: JAK2 kinase enzyme assay (Alphascreen). The assay is classed as biochemical. The following applies: 80 or 625 um ATP. As for the experimental part: as §6
The kinase domain of human JAK2 was amplified from U937mRNA using the polymerase chain reaction with the following primers: […]
The JAK2 PCR products were cloned into the pDest20 destination vector (Gibco). The JAK2 plasmid was then transformed into competent DH10Bac cells (Gibco), and the recombinant baculovirus was prepared via Sf9 insect cell transfection.
as §7, §8
On the technique in general: In Alpha technology, singlet oxygen from a donor bead excites a nearby acceptor bead.

The test system of a further assay is BAF3wt. Kind of assay: Cellular screening, BaF3 wild-type cells (Alamar Blue). The assay is classed as cell-based. Conditions: Mus musculus, 40 hr incubation. The protocol:
as §1, §3, §4, §5

A further assay relates to BafT_J3. Put plainly: Cellular screening, BaF3 TEL:JAK3 cells (Alamar Blue). The assay is classed as cell-based. The following applies: Mus musculus, 40 hr incubation. The protocol: as §1, §2
The TEL/Jak3 fusion was prepared by ligation of the JAK3 Sal I/Not I cleaved kinase domain PCR product with the BamH I/Sal I restriction digested TEL product, followed by ligation of the ligation product into the BamH I/Not I digested pTRE2, to give the TEL/Jak3 fusion plasmid pTELJAK3.
as §3, §4, §5

T2 sequence (O60674 849-1124 limits assumed): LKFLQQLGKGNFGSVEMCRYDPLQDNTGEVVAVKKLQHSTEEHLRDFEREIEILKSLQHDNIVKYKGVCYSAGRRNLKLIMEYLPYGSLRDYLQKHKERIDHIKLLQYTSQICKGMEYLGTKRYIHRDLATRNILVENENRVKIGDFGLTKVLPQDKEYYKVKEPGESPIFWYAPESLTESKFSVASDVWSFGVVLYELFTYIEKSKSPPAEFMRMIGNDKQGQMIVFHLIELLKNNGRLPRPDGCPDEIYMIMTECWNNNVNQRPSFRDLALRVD
T1 sequence (P52333 822-1111 limits assumed): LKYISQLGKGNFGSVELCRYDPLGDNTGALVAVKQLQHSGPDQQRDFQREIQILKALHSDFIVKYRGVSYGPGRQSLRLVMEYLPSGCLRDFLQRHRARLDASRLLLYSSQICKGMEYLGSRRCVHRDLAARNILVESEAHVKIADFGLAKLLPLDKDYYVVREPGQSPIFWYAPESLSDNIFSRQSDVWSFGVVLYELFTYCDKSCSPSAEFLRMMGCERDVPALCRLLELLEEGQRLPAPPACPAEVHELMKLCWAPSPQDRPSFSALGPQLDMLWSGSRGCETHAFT

In the case of `Nc1ccc(-c2csc3cnc(Nc4ccc(N5CCOCC5)cc4)nc23)cc1` [Compound 2, 7-(4-aminophenyl)-N-(4-morpholinophenyl)thieno[3,2-d]pyrimidin-2-amine], the IC50 in the assay on BafT_J2 is less than 1000 nM; in the assay on CTLL2, less than 1000 nM; against human JAK3, less than 100 nM; against human JAK2, less than 100 nM; in the assay with BAF3wt, less than 1000 nM; in the assay on BafT_J3, less than 1000 nM.
For the compound `C=CC(=O)Nc1ccc(-c2csc3cnc(Nc4ccc(N5CCOCC5)cc4)nc23)cc1` [Compound 3, N-(4-(2-(4-morpholinophenylamino)thieno[3,2-d]pyrimidin-7-yl)phenyl)acrylamide], the half-maximal inhibitory concentration (IC50) was less than 5000 nM in the assay on BafT_J2; less than 1000 nM in the assay with CTLL2; less than 100 nM at human JAK3; less than 100 nM against human JAK2; less than 5000 nM with BAF3wt; less than 1000 nM with BafT_J3.
As to `Nc1cccc(-c2csc3cnc(Nc4ccc(N5CCOCC5)cc4)nc23)c1` [Compound 4, 7-(3-aminophenyl)-N-(4-morpholinophenyl)thieno[3,2-d]pyrimidin-2-amine], the IC50 in the assay on BafT_J2 was less than 1000 nM; in the assay on CTLL2, less than 1000 nM; against human JAK3, less than 100 nM; against human JAK2, less than 100 nM; in the assay on BAF3wt it was less than 1000 nM; in the assay on BafT_J3, less than 1000 nM.
Turning to `C=CC(=O)Nc1cccc(-c2csc3cnc(Nc4ccc(N5CCOCC5)cc4)nc23)c1` [Compound 5, N-(3-(2-(4-morpholinophenylamino)thieno[3,2-d]pyrimidin-7-yl)phenyl)acrylamide], the 50% inhibitory concentration (IC50) was less than 5000 nM in the assay on BafT_J2; less than 1000 nM in the assay on CTLL2; less than 100 nM at human JAK3; less than 100 nM on human JAK2; less than 1000 nM in the assay with BAF3wt; less than 1000 nM with BafT_J3.
In the case of `COc1cc(-c2csc3cnc(Nc4ccc(N5CCOCC5)cc4)nc23)ccc1N` [Compound 10, 7-(4-amino-3-methoxyphenyl)-N-(4-morpholinophenyl)thieno[3,2-d]pyrimidin-2-amine], the IC50 in the assay on BafT_J2 was less than 1000 nM; in the assay on CTLL2, less than 1000 nM; against human JAK3, less than 100 nM; at human JAK2, less than 100 nM; in the assay on BAF3wt, less than 1000 nM; in the assay with BafT_J3 it was less than 1000 nM.
`CCc1ccccc1-c1csc2cnc(Nc3cccc(N)c3)nc12` [Compound 22, N1-(7-(2-ethylphenyl)thieno[3,2-d]pyrimidin-2-yl)benzene-1,3-diamine]: the IC50 was less than 1000 nM in the assay on BafT_J2; less than 1000 nM in the assay with CTLL2; less than 100 nM against human JAK3; less than 100 nM at human JAK2; less than 5000 nM with BAF3wt; less than 5000 nM with BafT_J3.
Regarding `CCc1ccccc1-c1csc2cnc(Nc3ccc(N4CCOCC4)cc3)nc12` [Compound 29, 7-(2-ethylphenyl)-N-(4-morpholinophenyl)thieno[3,2-d]pyrimidin-2-amine], the half-inhibitory concentration (IC50) in the assay on BafT_J2 was less than 1000 nM; with CTLL2, less than 1000 nM; on human JAK3 it was less than 100 nM; against human JAK2, less than 100 nM; with BAF3wt, less than 1000 nM; with BafT_J3, less than 1000 nM.
With `CC(=O)Nc1cccc(-c2csc3cnc(Nc4ccc(N5CCOCC5)cc4)nc23)c1` [Compound 30, N-(3-(2-(4-morpholinophenylamino)thieno[3,2-d]pyrimidin-7-yl)phenyl)acetamide], the half-maximal inhibitory concentration (IC50) with BafT_J2 is less than 1000 nM; with CTLL2, less than 5000 nM; on human JAK3 it was less than 100 nM; against human JAK2, less than 100 nM; in the assay on BAF3wt it was less than 1000 nM; in the assay with BafT_J3 it was less than 1000 nM.
On to `CS(=O)(=O)N(CC#N)c1ccc(-c2csc3cnc(Nc4ccc(N5CCOCC5)cc4)nc23)cc1` [Compound 32, N-(cyanomethyl)-N-(4-(2-(4-morpholinophenylamino)thieno[3,2-d]pyrimidin-7-yl)phenyl)methanesulfonamide], for which the 50% inhibitory concentration (IC50) with BafT_J2 is less than 1000 nM; with CTLL2 it was less than 1000 nM; on human JAK3 it was less than 100 nM; at human JAK2, less than 100 nM; with BAF3wt it was less than 5000 nM; in the assay on BafT_J3 it was less than 1000 nM.
As to `Cn1cc(-c2ccc(NS(C)(=O)=O)cc2)c2nc(Nc3ccc(N4CCOCC4)cc3)ncc21` [Compound 35, N-(4-(5-methyl-2-(4-morpholinophenylamino)-5H-pyrrolo[3,2-d]pyrimidin-7-yl)phenyl)methanesulfonamide], the half-inhibitory concentration (IC50) in the assay with BafT_J2 is less than 5000 nM; with CTLL2, less than 5000 nM; at human JAK3 it was less than 1000 nM; against human JAK2, less than 100 nM; in the assay with BAF3wt, less than 5000 nM; in the assay with BafT_J3 it was less than 20000 nM.
For `CC(C)c1ccccc1-c1csc2cnc(Nc3ccc(N4CCOCC4)cc3)nc12` [Compound 37, 7-(2-isopropylphenyl)-N-(4-morpholinophenyl)thieno[3,2-d]pyrimidin-2-amine], the concentration for half-maximal inhibition (IC50) in the assay on BafT_J2 is less than 1000 nM; with CTLL2 it was less than 1000 nM; on human JAK3, less than 100 nM; at human JAK2, less than 100 nM; with BAF3wt, less than 1000 nM; in the assay with BafT_J3, less than 1000 nM.
For `Nc1ccc(-c2csc3cnc(Nc4ccc(N5CCOCC5)cc4)nc23)cc1[N+](=O)[O-]` [Compound 44, 7-(4-amino-3-nitrophenyl)-N-(4-morpholinophenyl)thieno[3,2-d]pyrimidin-2-amine], the half-maximal inhibitory concentration (IC50) in the assay with BafT_J2 is less than 1000 nM; in the assay with CTLL2, less than 5000 nM; on human JAK3 it was less than 100 nM; against human JAK2, less than 100 nM; in the assay on BAF3wt, less than 5000 nM; in the assay with BafT_J3 it was less than 5000 nM.

Broadly, the IC50 is the concentration needed to halve the response being measured. Read a high IC50 as weaker potency in that assay.
